Test results from PubChem BioAssay (NCI).
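Interpolation was linear, between the two tested concentrations surrounding the appropriate level; five concentrations were tested over 48 hours in 96-well plates. GI50 = concentration required for 50% inhibition of growth. At the TGI there is no net growth.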

Experiments:
Test in all cases: NCI tumour cell line growth inhibition, 48 h
SF-268 CNS = test system: SF-268 CNS
RXF 393 renal = test system: RXF 393 renal
SK-MEL-28 melanoma = test system: SK-MEL-28 melanoma
MDA-MB-435 = test system: MDA-MB-435
MDA-N = test system: MDA-N
OVCAR-3 ovarian = test system: OVCAR-3 ovarian
SK-MEL-2 melanoma = test system: SK-MEL-2 melanoma
SR leukemia = test system: SR leukemia
A549 NSCLC = test system: A549 NSCLC
RPMI-8226 leukemia = test system: RPMI-8226 leukemia

| SMILES | TGI (SF-268 CNS) [µM] | TGI (RXF 393 renal) [µM] | TGI (SK-MEL-28 melanoma) [µM] | TGI (MDA-MB-435) [µM] | TGI (MDA-N) [µM] | TGI (OVCAR-3 ovarian) [µM] | TGI (SK-MEL-2 melanoma) [µM] | TGI (SR leukemia) [µM] | TGI (A549 NSCLC) [µM] | TGI (RPMI-8226 leukemia) [µM] | GI50 (MDA-MB-435) [nM] | GI50 (MDA-N) [nM] | GI50 (OVCAR-3 ovarian) [µM] |
| --- | --- | --- | --- | --- | --- | --- | --- | --- | --- | --- | --- | --- | --- |
| C=CCOC(=O)C1=C(C)NC2=N[C@H](CCCCCCCCC)C[C@@H]3CCC1N23 (stereo not given in full) | 39.9 | 36 | 53.6 | 44.5 | 38.4 | 37.5 | 36.5 | > 100 | > 100 | > 100 | – | – | – |
| Cc1ccc2nc(C(C)C)c(=O)[nH]c2c1 | > 100 | > 100 | > 100 | > 100 | > 100 | 32.8 | 28.2 | > 100 | > 100 | > 100 | – | – | – |
| O=C(NNC(=S)NC1CCCCC1)C12CC3CC(CC(C3)C1)C2 | > 100 | > 100 | > 100 | > 100 | > 100 | > 100 | > 100 | > 100 | > 100 | > 100 | – | – | – |
| Cc1ccc2c(=O)cc(-c3ccc4ccccc4c3)[nH]c2n1 | > 100 | – | > 100 | 4.16 | 4.69 | > 100 | > 100 | 5.59 | > 100 | 19.5 | 1570 | 1940 | 3.59 |
| O=[S@]1c2ccc3ccccc3c2N[C@@H]2[C@H]1[C@H]1C=C[C@@H]2C1 | > 100 | 95.1 | > 100 | 99.6 | 60.8 | 37.6 | > 100 | > 100 | > 100 | > 100 | – | – | – |
| C=C(C(=O)OC)[C@@H]1C[C@@H](OC(C)=O)C2=C[C@H](C[C@@]3(C)O[C@@H]3C3=CC(C)=C(O3)[C@H]1OC(C)=O)OC2=O | > 100 | 44 | 33.2 | 37.9 | 50.8 | – | > 100 | 37.6 | > 100 | 21.4 | – | – | – |
| CC(C)=CCC[C@@H](C)C1=C(O)C(Nc2ccccc2Cl)=C(C)C(=O)C1=O | > 75 | > 50.8 | > 75 | > 75 | > 75 | > 75 | 46.7 | 72.1 | > 59.7 | > 55.8 | – | – | – |
| CN(CCCNC(=O)c1cn(C)c2c1Cc1ccccc1-2)CCCNC(=O)c1cn(C)c2c1Cc1ccccc1-2 | 21.3 | 34.9 | 24 | 5.16 | 12.3 | 31.3 | 30.6 | 11.1 | 32.3 | > 100 | – | – | – |
| O=C(/C=C/c1ccccc1)Nc1ccccc1SCCCCl | > 100 | 84.2 | > 100 | 37 | 28.6 | > 92.1 | > 100 | 64.7 | > 100 | > 100 | – | – | – |
| CC(=O)OCC(=O)OC[C@H](OCc1ccccc1)[C@@H]1[C@H](OC(C)=O)C(=O)N1Cc1ccccc1 | > 100 | – | > 100 | > 100 | > 100 | > 100 | > 100 | > 100 | > 100 | > 100 | – | – | – |
| COc1ccc2c(c1)/C(=C\c1c(Cl)[nH]c3ccccc13)C(=O)N2 | 16 | 13.4 | 8.05 | 3.82 | 3.83 | 23 | 16.1 | 8.25 | 19 | 16.3 | – | – | – |
| COC(=O)c1cc(NC(=O)Cc2c[nH]c3ccccc23)cn1C | > 100 | > 100 | > 100 | > 100 | > 100 | > 100 | > 100 | > 100 | > 100 | 63.9 | – | – | – |
| O=C1/C(=C/c2ccccc2[N+](=O)[O-])N=C(c2ccccc2)N1c1nc2ccccc2s1 | 60.4 | 33.7 | > 100 | 54.1 | 71.9 | 51.9 | > 100 | 34.3 | > 100 | 61.6 | – | – | – |
| O=C1O[C@H]2[C@H](OC(=O)c3cc(O)c(O)c(O)c3)[C@@H](OC(=O)c3cc(O)c(O)c4c3[C@@H]3C1=CC(=O)C(O)(O)C3(O)O4)[C@H](OC(=O)c1cc(O)c(O)c(O)c1)O[C@@H]2COC(=O)c1cc(O)c(O)c(O)c1 (stereo not given in full) | > 100 | > 100 | > 100 | > 100 | > 100 | > 100 | > 100 | > 100 | > 100 | > 100 | – | – | – |
| CCOC(=O)/C=C(/C(=O)OCC)n1ccc(=O)n(Cc2cnnn2COCCOC(C)=O)c1=O | 44.4 | 39 | 32.2 | 32.5 | 46.3 | 31 | 41.9 | 45.7 | > 100 | 51.2 | – | – | – |
| NC1CCC(N(CC(=O)O)CC(=O)O)C(N(CC(=O)O)CC(=O)O)C1 (stereo not given) | > 100 | > 100 | > 100 | > 100 | > 100 | > 100 | > 100 | > 100 | > 100 | > 100 | – | – | – |
